Usually melting point stands for the temperature of the solid-liquid transition.

Peptide text beside a SMILES is read from it.

As for `CCCCCCCCCCCCCCCc1cccc(O)c1`, the melting point amounted to 53.5 °C.

`NC(=O)C[C@H](NC(=O)OCC1c2ccccc2-c2ccccc21)C(=O)O` gave a melting point of 180 °C.

For the compound `C/C(=N\CCN)c1c(O)c2ccccc2n(-c2ccccc2)c1=O`, the melting point was over 300 °C.

Consider `Cc1nnc2n1-c1sc(Br)cc1C(c1ccccc1Cl)=NC2`, for which the melting point amounted to 213 °C.

In turn, `CC(=O)Oc1cccc(C#N)c1` came in with a melting point of 60 °C.

Compound `CC(C)C(=O)OCCCc1ccccc1` returned a melting point of -60 °C.

The compound `Nc1ccc(C(=O)O)cc1F` returned a melting point of 215 °C.

Compound `NC(=O)NN=Cc1ccc([N+](=O)[O-])cc1` registered a melting point of 217 °C.

`NCc1cc2ccccc2s1` registered a melting point of 58 to 59 °C.

For `COc1cc(N=C=O)cc(OC)c1OC`, the melting point worked out at 40 °C.

Consider `O=C(Cl)c1cc(Cl)cc(Cl)c1`, for which the melting point was 40 °C.

Turning to `Oc1ncc(C(F)(F)F)cc1Cl`, the melting point fell in the range of 157 to 159 °C.

The compound `C#CCOc1cc(-n2nc(C(C)(C)C)oc2=O)c(Cl)cc1Cl` gave a melting point of 131 °C.

`Cc1occc1C(=O)Nc1ccccc1`: the melting point worked out at 110 °C.

As to `COc1cc(OC(F)(F)F)ccc1C#N`, the melting point was 35 °C.

`O=C(Cc1cc(Cl)c([N+](=O)[O-])cc1[N+](=O)[O-])c1ccccc1` gave a melting point of 133 °C.

Compound `O=[N+]([O-])c1ccc2c(c1)Cc1cc([N+](=O)[O-])ccc1-2` displayed a melting point of 334 °C.

Consider `Nc1cc(O)c(Cl)cc1Cl`, for which the melting point was 133 to 137 °C.

As to `O=C(Cc1ccccc1)C(=O)C(Br)c1ccccc1` (centres undefined), the melting point is 73 °C.

For `CCC(C)c1cc([N+](=O)[O-])cc([N+](=O)[O-])c1OC(C)=O` (centres undefined), the melting point was found to be 26 °C.

Compound `CCC[C@H]1CCC[C@H]1C` (relative stereo) displayed a melting point of -104 °C.

Take `COc1c(C(=O)Cl)csc1Cl`: the melting point lay within 66 to 68 °C.

On to `Cc1nn(-c2ccccc2)nc1C(=O)NN`, for which the melting point was 123 to 125 °C.

In turn, `O=C(c1ccccc1)c1cnc2ccc(Br)cn2c1=O` came in with a melting point of 208 to 210 °C.

`CC(C)(C)c1ccc(-c2nnc(-c3ccc(-c4ccccc4)cc3)o2)cc1` registered a melting point of 137 °C.

In turn, `COc1ccc2cc([N+](=O)[O-])ccc2c1` gave a melting point of 134 °C.

`CC1OC(=O)C(C)C1CC(O)C(C)(O)C1CCC2(O)C3=CC(=O)C4CC(O)C(O)CC4(C)C3CCC12C` (centres undefined) had a melting point of 158 to 160 °C.

For `OC1C2CC3CC(C2)CC1C3` (centres undefined), the melting point turned out to be 301 °C.

In turn, `CC(=O)c1ccc(-c2ccc(C(C)=O)cc2)cc1` came in with a melting point of 192 to 196 °C.

In turn, `Cc1cc(C(c2ccc(C)o2)c2ccc(C)o2)c(O)c([N+](=O)[O-])c1` had a melting point of 93 °C.

Turning to `Cc1nc(-c2ccccc2)sc1CN`, the melting point worked out at 230 °C.

`Cc1cccc(NC=C2C(=O)NN=C2c2c(O)c3ccccc3n(C)c2=O)c1` gave a melting point of 264 °C.

Consider `C[Si](C)(C)C#CC1(O)Cc2ccccc21` (centres undefined), for which the melting point came out at 47 °C.

For the compound `COC(=O)C1(C(=O)OC)Cc2c(C)c(C)c(C)c(C)c2C(=O)O1`, the melting point amounted to 166 °C.

`O=c1ccc2cc(OC3OC(CO)C(O)C(O)C3O)c(O)cc2o1` (centres undefined): the melting point is 205 °C.

`Cc1cc2cc(N)ccc2[nH]1` gave a melting point of 152 to 155 °C.

Compound `CCOC(=O)CSc1nc(C(C)(C)C)nn1C(=O)N(C)C` returned a melting point of 53 °C.

For the compound `COc1ccc(Br)cc1C=CC(=O)O`, the melting point lay within 224 to 229 °C.

Consider `Cc1nn(-c2ccccc2)c2oc3sccc3c(=S)c12`, for which the melting point lay in the range of 194 to 196 °C.

For the compound `C[Si](C)(C)OS(=O)(=O)O[Si](C)(C)C`, the melting point lay within 47 to 50 °C.

`CC12CCC(C=C/C1=N\O)C2(C)C` (centres undefined) returned a melting point of 145 to 146 °C.

For `c1cc2c3c(ccc2c2c1CC2)CC3`, the melting point was found to be 163 °C.

`O=C(O)CCCCCCCCCCO` gave a melting point of 65.5 °C.

`O=C(Cl)c1cccc(Cl)c1Cl` gave a melting point of 30 °C.

For `CCOC(=O)c1sc(-c2ccc(N)cc2)nc1C`, the melting point turned out to be 128 °C.

In turn, `O=CC(Cl)(Cl)Cl` came in with a melting point of -57.5 °C.

Turning to `Oc1ccc2cccc(Cl)c2c1`, the melting point is 101 °C.

For `CC(C)CC1c2ccccc2-c2ccccc21`, the melting point was 45 °C.

For the compound `O=C1C=C(N2CC2)C(=O)C(N2CC2)=C1N1CC1`, the melting point came out at 163 °C.

For the compound `C=COC(=O)CC`, the melting point is -80 °C.

`C=CC(C)(C)O` registered a melting point of -28 °C.

`Nc1nc2ccccc2n1Cc1ccc(F)cc1` returned a melting point of 191 to 193 °C.

In the case of `NC(N)=Nc1nc(CSCCC(N)=NS(N)(=O)=O)cs1`, the melting point was found to be 163 °C.

On to `CC1CC(=O)c2cc(Cl)ccc2S1` (centres undefined), for which the melting point was 64 to 65 °C.

The compound `CC1(C)CCC2(C(=O)O)CCC3(C)C(=CCC4C5(C)CCC(O)C(C)(C=O)C5CCC43C)C2C1` (centres undefined) registered a melting point of 275 °C.

Consider `CC(=O)C(N=Nc1ccccc1)C(C)=O`, for which the melting point stood at 87 °C.

`CCC(=O)OC1CCC2(C)C(=CCC3C2CCC2(C)C(OC(=O)CC)CCC32)C1` (centres undefined) gave a melting point of 113 °C.

In the case of `Fc1cc(Br)ccc1CBr`, the melting point is 35 °C.

Compound `CN(C)CCCOc1ccccc1CO` came in with a melting point of 55 to 57 °C.

`CC(=O)N=C1C=CC(=O)C=C1`: the melting point came to 74.5 °C.

The compound `C=C(C(=O)O)C1CCC2C(=CCC3C(C)(C)C(O)CCC23C)C1` (centres undefined) yielded a melting point of 218 °C.

As for `CC(C)[C@H](NC(=O)CN)C(=O)O` (H-Gly-Val-OH), the melting point came to 248 °C.

`CC(C)=CCC/C(C)=N/NC(N)=O`: the melting point amounted to 136 °C.

For the compound `CC1C(=O)C23C4CC5C(C)(CO)CCCC56COC(CC1C2OC(C)(C)O4)C63` (centres undefined), the melting point came to 220 °C.

`Clc1ccc(C=Nc2n[nH]c(N=Cc3ccc(Cl)cc3)c2Cc2ccc(Cl)cc2)cc1` displayed a melting point of 228 to 230 °C.

In turn, `CCCCCCCOc1ccc(N)cc1` yielded a melting point of 45 °C.

For the compound `CCOC(=O)c1c(Cl)cc(C)nc1Cl`, the melting point was 53 to 57 °C.

As for `OCCN(CCO)c1nc(N2CCCCC2)c2nc(N(CCO)CCO)ncc2n1`, the melting point was determined as 158 °C.

As for `CN1CCN(c2cccc(N)c2)CC1`, the melting point was in the range of 98 to 99 °C.

Turning to `COc1ccc(C#N)c(Cl)c1OC`, the melting point was 102 °C.

Compound `c1ccc(N=Nc2ccc(/N=N/c3ccc(N=Nc4ccccc4)cc3)cc2)cc1` yielded a melting point of 233 °C.

The compound `NC(=O)c1ccccn1` had a melting point of 106 °C.

As for `Cc1c(C=O)cnn1-c1ccccc1`, the melting point is 76 to 77 °C.

In the case of `N#Cc1ccc(O)c(O)c1`, the melting point lay in the range of 154 to 156 °C.

Take `Cn1c(=O)c(C2=NNC(=O)C2=Cc2c(O)ccc3ccccc23)c(O)c2ccccc21`: the melting point stood at 285 °C.

The compound `O=[N+]([O-])c1cc([N+](=O)[O-])c(C(/C(=N/Nc2ccccc2)c2ccccc2)c2ccccc2)cc1Cl` (centres undefined) came in with a melting point of 195 to 196 °C.

`O=C1CC(c2ccccc2)Oc2ccccc21` (centres undefined) yielded a melting point of 77 °C.

Consider `O=C(/C=C/c1ccco1)c1ccc(O)cc1`, for which the melting point was determined as 163 °C.

As to `CCOC(=O)Oc1c(-c2ccccc2)n(C(C)=O)c2cc([N+](=O)[O-])ccc12`, the melting point stood at 133 °C.

In turn, `CC(C)CCCCCCCCCCCO` gave a melting point of 10.5 °C.

In the case of `CC12CCC(c3c(Br)cc(=O)oc31)C2(C)C` (centres undefined), the melting point was found to be 105 °C.

`Cc1nc(-c2cccc(Br)c2)cs1` yielded a melting point of 56 to 60 °C.

In turn, `Sc1nnc(S)s1` yielded a melting point of 161 to 165 °C.

For the compound `CSCN1C(=O)NC(c2ccccc2)(c2ccccc2)C1=O`, the melting point lay within 124 to 131 °C.

`COc1ccc(C=CC(=O)C=Cc2ccc(OC)cc2)cc1` had a melting point of 129 °C.

For the compound `C[C@H](C[C@H](I)C(C)(C)C)S(=O)(=O)c1ccccc1`, the melting point is 74 °C.

For `COC(=O)c1c2c(c(C)c3c1C(C)C3=O)C(=O)C2` (centres undefined), the melting point was found to be 150 °C.

In the case of `C[C@@]12CCC=C1[C@@H]1CC[C@@H]3C[C@H](O)CC[C@]3(C)[C@H]1CC2`, the melting point was 129 to 130 °C.

As to `O=[N+]([O-])c1ccc(Oc2ccc(Cl)cc2)nc1`, the melting point lay in the range of 93 to 96 °C.

In turn, `CC(=O)NCc1ccccc1` registered a melting point of 61 °C.

The compound `ClCC1C(CCl)C2(Cl)C(Cl)=C(Cl)C1(Cl)C2(Cl)Cl` (centres undefined) displayed a melting point of 105 °C.

Compound `CCCN=C=O` registered a melting point of -30 °C.

`CC(=O)Nc1ccccc1CCNCCc1ccccc1NC(C)=O` returned a melting point of 110 °C.

`Cc1c(C)c2c3ccccc3ccc2c2ccccc12`: the melting point turned out to be 129 °C.

For `CCCCCCCCCCCCCCCCCCCCCCCCCC(=O)OC`, the melting point is 63.8 °C.

`CCCOc1ccc(C(=O)O)cc1`: the melting point is 145 °C.

Regarding `NCCN(CCN)N(O)N=O`, the melting point lay within 98 to 106 °C.

For `NS(=O)(=O)c1cc2c(cc1Cl)NC(CSCC(F)(F)F)NS2(=O)=O` (centres undefined), the melting point was 206 °C.

Consider `CC(C)(C)c1cc(C(F)(F)F)n[nH]1`, for which the melting point was in the range of 178 to 180 °C.

The compound `Cc1ccc(S(=O)(=O)NC(=S)Nc2ccccc2)cc1` registered a melting point of 148 to 149 °C.

Turning to `Cc1ccc(-c2cc(C(=O)O)c(C)o2)cc1`, the melting point lay in the range of 230 to 232 °C.

`CNC(=Nc1cc(C)ccn1)SC` came in with a melting point of 78 to 81 °C.

`O=[N+]([O-])c1nc[nH]n1` yielded a melting point of 212 to 214 °C.

As for `OCc1cccc(-c2cncnc2)c1`, the melting point fell in the range of 65 to 66 °C.

As for `FC(Br)C(F)(F)F` (centres undefined), the melting point was -80 °C.

With `O=C1CCC2OCC(c3ccccc3)N12` (centres undefined), the melting point was in the range of 76 to 80 °C.

`O=S(=O)(Cl)c1ccc(Br)s1` showed a melting point of 41 °C.

`CC(=O)c1csc2ccc(Br)cc12`: the melting point is 87 to 90 °C.

Compound `CN1C(=O)C(=NNc2ccc(Br)cc2)C(=O)N(C)C1=O` showed a melting point of 218 °C.

The values above are taken from a melting point compilation (Tetko et al.).
